Reference: patent US10722523B2, “Chemoimmunotherapy for epithelial cancer” (THE REGENTS OF THE UNIVERSITY OF CALIFORNIA, priority 2015, dated 2020)

Assays:
[1] = system: Myc-Cap (MC) tumors; assay: s.c. Myc-Cap (MC) prostate tumor model; type: in vivo, mouse; conditions: for regression of MC tumors raised in Jh−/− mice: LD, 3 weekly cycles, tumors 400 mm3
Excerpt: (§1) All TRAMP mice, their derivatives and s.c. Myc-Cap transplantation were in the FVB genetic background and their basic immune parameters are shown in FIG. 15a-m. For s.c. TRAMP-C2 tumors, C57BL/6 mice were used. In both s.c. tumors, 2-3×10^6 cells/mouse were transplanted. More detailed information is as follows.
(§2) Mouse treatment studies were “matched design control trials.” Accordingly, mice were randomly chosen and paired based on sex (male), age (FIG. 6a) and tumor size. For transplanted tumor models, tumor size was defined by the median tumor volume (e.g. 400 mm^3, for late treatments, FIG. 6a,f). For TRAMP transgenic tumor models, treatment decisions were made based on age and mice were randomly chosen including a control littermate. An identification code was assigned to each tumor-bearing mouse both in the transplanted and transgenic models, and the investigators were blinded to treatment allocation at the time of tumor volume measurement, autopsy and analysis.
2×10^6 Myc-Cap^11 or 3×10^6 TRAMP-C2^12 cells (purchased from ATCC) were s.c. injected into the right flank. Tumors were measured every 2-3 days using a caliper. Tumor volumes were calculated as width^2×length/2.
B cells were depleted as previously described^13. Mice were weekly injected (i.p.) with a mixture of monoclonal antibodies, each at 150 μg/mouse: rat anti-mouse CD19 (clone 1D3), rat anti-mouse B220 (clone RA36B2), and mouse anti-mouse CD22 (clone CY34). After 48 hrs, the mice were injected with a secondary antibody (mouse anti-rat kappa chain; GeneTex) at 150 μg/mouse. In addition, mice were injected weekly, but not on the same day, with 250 μg/mouse rat anti-mouse CD20 (Genentech). Rat anti-mouse IgG2a and IgG1 were used as isotype controls. Mice were treated for 3 weeks in total (FIG. 1g; FIG. 7i-p). […]

[2] = system: Myc-Cap (MC) cells; assay: Cell death and autophagy of Myc-Cap cells in vitro (Annexin V/PI, LC3A flow cytometry); type: cell-based, mouse; conditions: for apoptotic cell death of MC cells (Annexin V, propidium iodide): both at 20 µM
Excerpt: (§3) All results are means±s.e.m.
For adoptive T cell transfer (ATCT) CD8^+ T cells were isolated from single cell suspensions, prepared from spleens and lymph nodes as described above, using CD8α-specific microbeads and MACS-columns (both Miltenyi Biotec GmbH, Bergisch Gladbach, Germany), and 5×10^6 CD8^+ T cells were transferred intraperitoneally (i.p.; FIG. 14a-j). For adoptive B cell transfer (ABCT), B cells (B220^+/CD19^+) were isolated from single cell suspensions prepared from spleens using CD19- and B220-specific microbeads and MACS-columns, and 5×10^6 B cells were transferred i.p. (FIG. 4g-h, FIG. 12n,o). For adoptive splenocytes transfer (ACT), single cell suspensions prepared from spleens were transferred i.p., with one total spleen injected per mouse. Labelling with 5-(and 6-) carboxyfluorescein diacetate succinimidyl ester (CFSE; Molecular Probes, Eugene, Oreg.) was done according to manufacturer's protocol. 5×10^6 CD8^+ T cells or 7×10^6 B cells were transferred (equal to one spleen per mouse; FIG. 5a-i and FIG. 14k-q). For combined adoptive B and T cell transfer (FIG. 5j-1, FIG. 14r-t), T cells were isolated from WT-FVB mice immunized with a Myc-Cap cell lysate as previously described^10. […] The extent of cell death was determined by flow cytometry, showing that more than 90% of cells were positive for Annexin V and PI. The dead cells were injected subcutaneously (s.c.) into WT-FVB mice. Seven days later, T cells were isolated from single cell suspensions of spleen and LN using a Pan T cell isolation Kit (Miltenyi Biotec). B cells were isolated from spleens of naïve FVB-WT or FVB-Tgfbr2^ΔB mice using a Pan B cell isolation kit (Miltenyi Biotec). MC-tumor bearing Rag1^−/− mice received 5×10^6 T cells with or without 5×10^6 B cells (98% pure) from WT or Tgfbr2^ΔB mice. Purity was analyzed on a Beckman Coulter Cyan ADP flow cytometer and was always >98%.

[3] = IgA production and immune parameters in tumor-free mice; type: in vivo, mouse; conditions: LD, tumor-free WT or Tgfbr2ΔB mice
Method: as §3
For lymphocytes isolated from spleen and lymph nodes, standard protocols using filters have been used. Lymphocytes were isolated from human blood using Ficoll-Paque PLUS (GE Healthcare Life Science) according to manufacturer's recommendations. […] Moreover, Il10 and β-actin mRNA expression were analyzed on single cell level by flow cytometry in combination with CD45, IgA and IL-10 protein staining, using FlowRNA II Assay kit (Affymetrix eBioscience) according to manufacturer's protocols^9. Cells were analyzed on a Beckman Coulter Cyan ADP flow cytometer. Data were analyzed using FlowJo software (Treestar). […]
Anti-SV40 Tag immunoglobulin ELISA was performed as previously described^33. […] After 24 hrs, the supernatants were analysed for IgA content. […]

[4] = system: TRAMP-C2 tumors; assay: s.c. TRAMP-C2 tumor model with adoptive T cell transfer (ATCT); type: in vivo, mouse
Excerpt: Immunogenic TRAMP-C2 cells were s.c. inoculated into WT or Tcrβ^−/− mice. […] Immunogenic TRAMP-C2 cells were s.c. inoculated into WT or Rag1^−/− −×OT-1 mice (no B cells), that harbor CD8^+ T cells specific for chicken ovalbumin which is not expressed by TRAMP-C2 cells. […] All results are means±s.e.m. Mann-Whitney and t tests were used to calculate statistical significance.
For adoptive T cell transfer (ATCT) CD8^+ T cells were isolated from single cell suspensions, prepared from spleens and lymph nodes as described above, using CD8α-specific microbeads and MACS-columns (both Miltenyi Biotec GmbH, Bergisch Gladbach, Germany), and 5×10^6 CD8^+ T cells were transferred intraperitoneally (i.p.; FIG. 14a-j). […] For adoptive splenocytes transfer (ACT), single cell suspensions prepared from spleens were transferred i.p., with one total spleen injected per mouse. Labelling with 5-(and 6-) carboxyfluorescein diacetate succinimidyl ester (CFSE; Molecular Probes, Eugene, Oreg.) was done according to manufacturer's protocol. […] Purity was analyzed on a Beckman Coulter Cyan ADP flow cytometer and was always >98%.

[5] = system: tumor-infiltrating B cells and CD8+ T cells; assay: Flow cytometry / Q-RT-PCR of tumor-infiltrating lymphocytes in TRAMP and MC tumors; type: in vivo, mouse
Method: For lymphocytes isolated from spleen and lymph nodes, standard protocols using filters have been used. Lymphocytes were isolated from human blood using Ficoll-Paque PLUS (GE Healthcare Life Science) according to manufacturer's recommendations. For lymphocyte isolation from tumors (mouse and human), tumors were cut into small pieces and incubated in dissociation solution (RPMI medium supplemented with 5% FBS, collagenase type I (200 U/ml), collagenase type IV (200 U/ml), and DNase I (100 μg/ml) for 30 min at 37° C. After incubation, cell suspensions were passed through a 50 μm cell strainer and washed twice. For large tumors (≥0.7 g), hematopoietic cells were pre-enriched using density gradient centrifugation (Percoll or Ficoll), and red blood cells were lysed (RBC Lysis buffer, multi-species; eBioscience). For blocking of Fc-mediated interactions, mouse cells were pre-incubated with 0.5-1 μg of purified anti-mouse CD16/CD32 (93) per 100 μl and human cells were incubated with FcR blocking reagent (Miltenyi Biotec). Isolated cells were stained with labeled antibodies in PBS with 2% FCS and 2 mM EDTA or cell staining buffer (Biolegend). Dead cells were excluded based on staining with Live/Dead fixable dye (eBioscience). For intracellular cytokine staining, cells were restimulated (Myc-Cap cell lysate, PMA/ionomycin or PMA/ionomycin/LPS, as indicated) in the presence of a protein transport inhibitor cocktail containing Brefeldin A and Monensin (eBioscience), as indicated. For CD107, a staining antibody was added to the culture during the stimulation. After 5 hrs, cells were fixed and permeabilized with BD™ Cytofix/Cytoperm reagent for cytokine staining. BD™ transcription factor buffer was used for Foxp3 and T-bet staining and BD™ Phosflow was used for p-SMAD2/3 and p-STAT staining (BD Biosciences) according to manufacturer's recommendations. After fixation/permeabilization, cells were stained with labeled antibodies of interest. Moreover, Il10 and β-actin mRNA expression were analyzed on single cell level by flow cytometry in combination with CD45, IgA and IL-10 protein staining, using FlowRNA II Assay kit (Affymetrix eBioscience) according to manufacturer's protocols^9. Cells were analyzed on a Beckman Coulter Cyan ADP flow cytometer. Data were analyzed using FlowJo software (Treestar). Immune cell analysis of tumor-free mice of different genetic backgrounds (C57BL/6 and FVB) and different genetic ablations are shown in FIG. 15a-m.
Total RNA was extracted using an RNeasy Plus kit (Qiagen). RNA was reverse transcribed using an IScript kit (Biorad). Q-RT-PCR was performed using Ssofast EvaGreen supermix (Biorad) on a Biorad CFX96 machine. Primer sequences are listed below and generally were obtained from the NIH qPrimerDepot (http://mouseprimerdepot.nci.nih.gov). The relative expression levels of target genes were measured in triplicates and normalized against the level of RPL32 expression. Fold-difference (as relative mRNA expression) was calculated by the comparative CT method (2^(Ct(RPI,32-gene or interest))).

[6] = system: TRAMP prostate tumors; assay: TRAMP spontaneous prostate cancer model, weekly low dose oxaliplatin; type: in vivo, mouse; conditions: for prostate tumor regression 30 days after lymphocyte transfer: TRAMP
Excerpt: as §1
C57BL/6 and FVB control mice were purchased from Charles River Laboratories and CD45.1 mice^1 were purchased from Jackson Laboratory, and all were bred at the University of California San Diego (UCSD) animal facility. C57BL/6-Tg(TRAMP)8247Ng/J (TRAMP mice)^2 were backcrossed to the FVB strain for more than 10 generations. The median survival of TRAMP-FVB mice was 23 weeks compared to 52 weeks for TRAMP-C57BL/6 mice. TRAMP mice were crossed with B cell-deficient (Jh^−/−) mice^3, CTL-deficient (Cd8a^−/−) mice^4 or Rag1^−/− mice, which lack both B and T cells^5, all in the FVB-background. OT-I mice were obtained from Taconic^6. Tgfbr2^F/F (FVB-background) mice were obtained from Dr. Hal Moses at Vanderbilt University^7. Tcrb^−/−, Cd19-Cre, Il10^−/− and CD45.1 mice were purchased from the Jackson Laboratory. IgA gene-deficient (Iga^−/−) mice^8 were obtained from Baylor College of Medicine. Pdl1/2^−/− mice were obtained from Genentech (San Francisco, Calif.). Cd19-Cre and Iga^−/− mice were backcrossed to the FVB strain for more than 10 generations. All mice were maintained in filter-topped cages on autoclaved food and water at the UCSD animal facility and all experiments were performed in accordance with UCSD and NIH guidelines and regulations.
as §2
Anti-PD-L1 antibody was i.v. injected at 10 mg/kg once, followed by 5 mg/kg bi-weekly. Mice were treated for three weeks for a total of 7 doses/animal.

[7] = system: serum IgA, IgG; assay: Serum IgA and IgG ELISA in tumor-bearing mice; type: in vivo, mouse; conditions: TRAMP and MC-tumor models, oxaliplatin alone
Method: Anti-SV40 Tag immunoglobulin ELISA was performed as previously described^33. IgA and IgG ELISA kits were purchased from eBioscience, and used according to manufacturer's protocols. Tumoral single cell suspension has been prepared as described above in the flow cytometry section, and was washed 2-3 times with 1×PBS/2mMEDTA/2% FCS, to remove soluble IgA. Thereafter, about 3×10^6 cells/24-well were plated in either 10% FCS/DMEM or Hybridoma medium (Life Technology). After 24 hrs, the supernatants were analysed for IgA content. Media without cells were used as controls.

N.N.[Cl][Pt][Cl] [cisplatin]
regression of MC tumors raised in Jh−/− mice ([1]; 6 mg/kg): ineffective | immunogenic activity of low dose treatment ([1]; MC tumors, 6 mg/kg): devoid of immunogenic activity | apoptotic cell death of MC cells (Annexin V, propidium iodide) ([2]; 24 hrs): induced apoptotic cell death

O=C1[O][Pt]2([NH][C@@H]3CCCC[C@H]3[NH]2)[O]C1=O [oxaliplatin]
response of MC tumors ([1]; Cd8a−/− mice): No response | response of MC tumors to oxaliplatin with IgA ablation ([1]; Iga−/− mice versus WT): potentiated the response to oxaliplatin | regression of MC tumors raised in Jh−/− mice ([1]; 6 mg/kg): led to regression of MC tumors | tumor regression and CTL activation after T cell ± B cell transfer ([1]; MC tumors in Rag1−/− mice): induced tumor regression and CTL activation only in mice receiving T cells, or T cells+TGFβR2-deficient B cells | tumor infiltration with CD45+ cells ([1]; WT and Jh−/− mice): enhanced tumor infiltration with CD45^+ cells | response of small MC tumors (≤100 mm3) ([1]; WT mice, early treatment): chemotherapy responsive | response of large MC tumors (≥350-400 mm3) ([1]; WT versus Jh−/− mice, late treatment): shrank upon oxaliplatin treatment only in Jh^−/− mice | caspase 3 activation in tumors (apoptosis) ([1]; associated with oxaliplatin responsiveness): enhanced caspase 3 activation | tumoral DNA damage response (histone H2AX phosphorylation) ([1]; regardless of host genotype): similarly activated | IgA production and other immune parameters [3]: no effect | TRAMP-C2 tumor rejection, oxaliplatin combined with ATCT ([4]; B cell-containing Tcrβ−/− mice): no tumor rejection took place | TRAMP-C2 tumor growth, ATCT together with oxaliplatin ([4]; Rag1−/−, OT-1 mice (no B cells)): tumor growth was inhibited | IL-21 expression in tumors ([5]; MC tumors): increased IL-21 expression | Il10 mRNA expression in tumors ([5]; MC tumors): increased Il10 mRNA expression | STAT3 phosphorylation in tumoral B cells ([5]; MC tumors): enhanced STAT3 phosphorylation | proportion of tumoral B cells undergoing TGFβ signaling (p-SMAD2/3, Tgfb1 mRNA) ([5]; MC tumors): increased the proportion of tumoral B cells undergoing TGFβ signaling | abundance of tumor infiltrating CD8+ and CD4+ cells ([5]; MC tumors in Jh−/− mice, oxaliplatin versus cisplatin): increased the abundance | induction of Nos2, Arg1, IL-12p35 and IL-12p40 ([5]; MC tumors, WT and Jh−/− mice, no differences between them): induced other immunoregulatory molecules | induction of Fas-L and PD-L1 on tumoral B cells ([5]; TRAMP and MC tumors): induced Fas ligand (Fas-L) and PD ligand 1 (PD-L1) | CD8+ cell recruitment into tumors ([5]; TRAMP and TRAMP, Jh−/− mice): stimulated CD8^+ cell recruitment | abundance of LTα/β-producing B cells ([5]; TRAMP tumors): barely increased | oxaliplatin-induced IgA+ cells expressing both PD-L1 and IL-10 ([5]; TRAMP tumors): about 40% | amount of splenic IgA+ cells ([5]; WT mice bearing MC tumors): modestly increased | tumoral B cells that were CD19+B220lowCD138+ plasma cells ([5]; after 3-4 cycles of oxaliplatin treatment): at least 40% | plasma cells that expressed IgA ([5]; after 3-4 cycles, depending on the tumor model used): 40-80% | abundance of IgA+ B cells among B220low cells ([5]; after additional cycles): ~80% | IgA+ B cells expressing both Fas-L and PD-L1 ([5]; after oxaliplatin): about 50% | number of tumoral B220+CD19+ B cells ([5]; after oxaliplatin cycles): greatly increased | IgA+CD19+ plasmocytes containing both IL-10 mRNA and protein ([5]; after oxaliplatin treatment): 50% | time at which IgA+ B cells became detectable ([5]; after the first oxaliplatin cycle): 48 h | PC growth, late treatment ([6]; B cell-deficient TRAMP, Jh−/− mice): remained oxaliplatin sensitive | TRAMP mouse survival ([6]; LD oxaliplatin weekly, dependent on CTL): enhanced TRAMP mouse survival | prostate tumor regression 30 days after lymphocyte transfer ([6]; Rag1−/− mice receiving T and B cells): led to tumor regression | prostate tumor regression 30 days after lymphocyte transfer ([6]; Rag1−/− mice receiving only T cells): complete tumor regression | response of ≥0.7 g tumors to late chemotherapy ([6]; WT TRAMP mice, 6 mg/kg weekly, late treatment): largely resistant | response of early (≤0.2 g) TRAMP tumors ([6]; early treatment, regardless of B cell status): responded | apoptotic cell death of MC cells (Annexin V, propidium iodide) ([2]; 24 hrs): induced apoptotic cell death | stimulation of autophagy (LC3A) ([2]; MC cells, 24 hrs, 20 µM, compared with cisplatin): more effective in stimulating autophagy | cells positive for Annexin V and PI (extent of cell death) ([2]; Myc-Cap cells, oxaliplatin 40 μM, 48 hrs, flow cytometry): more than 90% | serum IgA [7]: increased serum IgA | serum IgG [7]: little effect on serum IgG
